# What was measured:
# [1] = tested on: barnyardgrass; assay: Test B pre-/postemergence herbicide test; format: in vivo, Echinochloa crus-galli; details: for Plant response rating (0 to 100 scale), Barnyardgrass: 0 is no effect, preemergence; for Barnyardgrass plant response rating: postemergence
# In short: (§1)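 Flooded paddy rice and barnyardgrass were treated at the 2-leaf stage; upland plantings received compound either on sown seed or on 1- to 4-leaf seedlings. All were kept 13–15 days in a greenhouse and scored visually, 0–100, relative to untreated plants.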
# [2] = tested on: giant foxtail; assay: Test B pre-/postemergence herbicide test; format: in vivo, Setaria faberi; details: for Plant response rating (0 to 100 scale), Foxtail, Giant: 0 is no effect, preemergence; for Foxtail, Giant plant response rating: postemergence
# In short: (§2)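 Evaluation is visual, comparing treated with control plants on a scale where 0 means no effect and 100 means full control. Treatments were preemergence, or postemergence on seedlings 2–18 cm tall, and held 13–15 days in the greenhouse.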
# [3] = tested on: large crabgrass; assay: Test B pre-/postemergence herbicide test; format: in vivo, Digitaria sanguinalis; details: for Plant response rating (0 to 100 scale), Crabgrass, Large: 0 is no effect, preemergence; for Crabgrass, Large plant response rating: postemergence
# In short: as §2
# [4] = tested on: ducksalad; assay: Test C flooded paddy test; format: in vivo, Heteranthera limosa
# [5] = tested on: velvetleaf; assay: Test B pre-/postemergence herbicide test; format: in vivo, Abutilon theophrasti; details: for Plant response rating (0 to 100 scale), Velvetleaf: 0 is no effect, 100 is complete control, preemergence; for Velvetleaf plant response rating: scale 0 (no effect) to 100 (complete control)
# In short: as §2
# [6] = tested on: cocklebur; assay: Test B pre-/postemergence herbicide test; format: in vivo, Xanthium strumarium; details: for Plant response rating (0 to 100 scale), Cocklebur: 0 is no effect, preemergence; for Cocklebur plant response rating: postemergence
# In short: as §1
# [7] = tested on: wild oat; assay: Test B postemergence herbicide test; format: in vivo, Avena fatua; details: scale 0 (no effect) to 100 (complete control)
# In short: (§3)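 After treating 2-leaf paddy plants or 2–18 cm postemergence plants (1 to 4 leaves) with formulated chemical, researchers kept them in a greenhouse for 13–15 days. Effects were judged visually versus controls: 0 indicates none, 100 total control.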
# [8] = tested on: barnyardgrass; assay: Test B flooded paddy test; format: in vivo, Echinochloa crus-galli; details: 1000 g ai/ha, scale 0 to 100 (0 no effect, 100 complete control)
# In short: as §3
# [9] = tested on: pigweed; assay: Test B pre-/postemergence herbicide test; format: in vivo, Amaranthus retroflexus; details: for Plant response rating (0 to 100 scale), Pigweed: 0 is no effect, 100 is complete control, preemergence; for Pigweed plant response rating: scale 0 (no effect) to 100 (complete control)
# In short: as §2
# [10] = tested on: small flower umbrella sedge; assay: Test B flooded paddy test; format: in vivo, Cyperus difformis; details: 1000 g ai/ha, scale 0 to 100 (0 no effect, 100 complete control)
# In short: as §3
# [11] = tested on: Surinam grass; assay: Test B pre-/postemergence herbicide test; format: in vivo, Urochloa decumbens; details: for Plant response rating (0 to 100 scale), Surinam Grass: 0 is no effect, 100 is complete control, preemergence; for Surinam Grass plant response rating: scale 0 (no effect) to 100 (complete control)
# In short: as §2
# [12] = tested on: corn; assay: Test B pre-/postemergence herbicide test; format: in vivo, Zea mays; details: for Plant response rating (0 to 100 scale), Corn: 0 is no effect, preemergence; for Corn plant response rating: postemergence
# In short: as §2
# [13] = tested on: rice; assay: Test B flooded paddy test; format: in vivo, Oryza sativa; details: 1000 g ai/ha, scale 0 to 100 (0 no effect, 100 complete control)
# In short: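 Each value is a visual 0–100 response rating taken against controls 13 to 15 days after treatment in the greenhouse. Plants received formulated chemical postemergence at the 1- to 4-leaf stage or, in flooded paddy, at the 2-leaf stage.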
# [14] = tested on: barnyardgrass; assay: Test C flooded paddy test; format: in vivo, Echinochloa crus-galli; details: for Plant response rating, Barnyardgrass: 500 g ai/ha, visual rating after 12 to 14 days
# In short: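 Weeds and wheat were sprayed after emergence, at a height of 2 to 18 cm (1–4 leaves), and paddy barnyardgrass was flooded and treated at two leaves. Assessment took place 12–14 days later in the greenhouse on a 0-to-100 visual control scale. A dash means no result was obtained.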
# [15] = tested on: lambsquarters; assay: Test B pre-/postemergence herbicide test; format: in vivo, Chenopodium album; details: for Lambsquarters plant response rating: scale 0 (no effect) to 100 (complete control)
# In short: as §2
# [16] = tested on: ducksalad; assay: Test B flooded paddy test; format: in vivo, Heteranthera limosa; details: 1000 g ai/ha, scale 0 to 100 (0 no effect, 100 complete control)
# In short: as §3
# [17] = tested on: rice; assay: Test C flooded paddy test; format: in vivo, Oryza sativa; details: for Plant response rating, Rice: 500 g ai/ha, visual rating after 12 to 14 days
# In short: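 Postemergence sprays applied to plants 2 to 18 cm tall (1- to 4-leaf stage); paddy species grown to 2-leaf stage under flooding. After 12 to 14 days in greenhouse, visual rating versus untreated controls on 0–100 scale (0 no effect, 100 complete control).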
# [18] = tested on: morningglory; assay: Test B pre-/postemergence herbicide test; format: in vivo, Ipomoea coccinea; details: for Plant response rating (0 to 100 scale), Morningglory: 0 is no effect, 100 is complete control, preemergence; for Morningglory plant response rating: scale 0 (no effect) to 100 (complete control)
# In short: as §1
# [19] = tested on: smallflower umbrella sedge; assay: Test C flooded paddy test; format: in vivo, Cyperus difformis
# [20] = tested on: blackgrass; assay: Test B postemergence herbicide test; format: in vivo, Alopecurus myosuroides; details: postemergence
# In short: as §3
# [21] = tested on: wheat; assay: Test B postemergence herbicide test; format: in vivo, Triticum aestivum; set-up: key to Wheat plant response rating: 0 = no effect, 100 = complete control
# In short: as §3
# [22] = 125 g ai/ha, 100 is complete control
# [23] = 125 g ai/ha, visual rating, scale 0 (no effect) to 100 (complete control)
# [24] = 500 g ai/ha, scale 0 to 100, 0 is no effect, 100 is complete control
# [25] = 125 g ai/ha, scale 0 to 100 (0 no effect, 100 complete control)
# [26] = 250 g ai/ha, scale of 0 to 100, 0 is no effect, 100 is complete control
# [27] = 125 g ai/ha, visual rating, postemergence
# [28] = 62 g ai/ha, scale 0 to 100 (0 no effect, 100 complete control)
# [29] = scale 0 to 100 (0 no effect, 100 complete control)
# [30] = 125 g ai/ha, visual rating, scale 0 (no effect) to 100 (complete control), postemergence
# [31] = 500 g ai/ha, scale 0 to 100, 0 no effect, 100 complete control, preemergence
# [32] = Postemergence, 500 g ai/ha, scale 0 (no effect) to 100 (complete control)
# [33] = 500 g ai/ha, visual rating after 12 to 14 days, scale 0 to 100 (0 no effect, 100 complete control)
smiles,measurement,setting,value
CCc1nn(C(C)(C)CC)nc1C(=O)Nc1cc(C(=O)N(C)C)ccc1F [Compound 368],"Plant response rating (0 to 100 scale), Barnyardgrass",[1]; [22],40
same,Barnyardgrass plant response rating,[1]; [23],0
same,Barnyardgrass plant response rating,[1]; [24],10
same,"Plant response rating (0 to 100 scale), Foxtail, Giant",[2]; [22],20
same,"Foxtail, Giant plant response rating",[2]; [23],0
same,"Foxtail, Giant plant response rating",[2]; [24],10
same,"Plant response rating (0 to 100 scale), Crabgrass, Large",[3]; [22],10
same,"Crabgrass, Large plant response rating",[3]; [23],10
same,"Crabgrass, Large plant response rating",[3]; [24],10
same,Ducksalad plant response rating,"[4]; 62 g ai/ha, scale 0 to 100",0
same,Ducksalad plant response rating,[4]; [25],80
same,Ducksalad plant response rating,[4]; [26],90
same,"Plant response rating (0 to 100 scale), Velvetleaf",[5]; 125 g ai/ha,0
same,Velvetleaf plant response rating,[5]; [27],10
same,Velvetleaf plant response rating,"[5]; Postemergence, 500 g ai/ha",20
same,"Plant response rating (0 to 100 scale), Cocklebur",[6]; [22],0
same,Cocklebur plant response rating,[6]; [23],20
same,Cocklebur plant response rating,[6]; [24],30
same,"Oat, Wild plant response rating",[7]; [27],0
same,"Oat, Wild plant response rating","[7]; Postemergence, 500 g ai/ha",0
same,Barnyardgrass plant response rating,[8],60
same,"Plant response rating (0 to 100 scale), Pigweed",[9]; 125 g ai/ha,30
same,Pigweed plant response rating,[9]; [27],10
same,Pigweed plant response rating,"[9]; Postemergence, 500 g ai/ha",50
same,"Sedge, Umbrella plant response rating",[10],80
same,"Plant response rating (0 to 100 scale), Surinam Grass",[11]; 125 g ai/ha,10
same,Surinam Grass plant response rating,[11]; [27],0
same,Surinam Grass plant response rating,"[11]; Postemergence, 500 g ai/ha",0
same,"Plant response rating (0 to 100 scale), Corn",[12]; [22],0
same,Corn plant response rating,[12]; [23],0
same,Corn plant response rating,[12]; [24],10
same,Rice plant response rating,[13],50
same,Barnyardgrass plant response rating,[14]; [28],0
same,Barnyardgrass plant response rating,[14]; [25],0
same,Barnyardgrass plant response rating,[14]; [26],0
same,"Plant response rating, Barnyardgrass",[14]; [29],30
same,Lambsquarters plant response rating,[15]; [27],50
same,Lambsquarters plant response rating,"[15]; Postemergence, 500 g ai/ha",60
same,Ducksalad plant response rating,[16],90
same,Rice plant response rating,"[17]; 62 g ai/ha, scale 0 to 100",20
same,Rice plant response rating,[17]; [25],45
same,Rice plant response rating,[17]; [26],60
same,"Plant response rating, Rice",[17]; [29],70
same,"Plant response rating (0 to 100 scale), Morningglory",[18]; 125 g ai/ha,0
same,Morningglory plant response rating,[18]; [27],0
same,Morningglory plant response rating,"[18]; Postemergence, 500 g ai/ha",30
same,"Sedge, Umbrella plant response rating","[19]; 62 g ai/ha, scale 0 to 100",20
same,"Sedge, Umbrella plant response rating",[19]; [25],75
same,"Sedge, Umbrella plant response rating",[19]; [26],75
same,Blackgrass plant response rating,[20]; [23],0
same,Blackgrass plant response rating,[20]; [24],10
same,Wheat plant response rating,[21]; [30],0
same,Wheat plant response rating,[21]; [31],10
same,Wheat plant response rating,[21]; [32],0
C=CCNC(=O)c1ccc(F)c(NC(=O)c2nn(C(C)(C)C)nc2CC)c1 [Compound 383],"Plant response rating (0 to 100 scale), Barnyardgrass",[1]; [22],10
same,Barnyardgrass plant response rating,[1]; [23],0
same,Barnyardgrass plant response rating,[1]; [24],0
same,"Plant response rating (0 to 100 scale), Foxtail, Giant",[2]; [22],10
same,"Foxtail, Giant plant response rating",[2]; [23],0
same,"Foxtail, Giant plant response rating",[2]; [24],0
same,"Plant response rating (0 to 100 scale), Crabgrass, Large",[3]; [22],50
same,"Crabgrass, Large plant response rating",[3]; [23],0
same,"Crabgrass, Large plant response rating",[3]; [24],10
same,Ducksalad plant response rating,"[4]; 62 g ai/ha, scale 0 to 100",0
same,Ducksalad plant response rating,[4]; [25],45
same,Ducksalad plant response rating,[4]; [26],45
same,"Plant response rating, Ducksalad",[4]; [33],95
same,"Plant response rating (0 to 100 scale), Velvetleaf",[5]; 125 g ai/ha,10
same,Velvetleaf plant response rating,[5]; [27],10
same,Velvetleaf plant response rating,"[5]; Postemergence, 500 g ai/ha",40
same,"Plant response rating (0 to 100 scale), Cocklebur",[6]; [22],0
same,Cocklebur plant response rating,[6]; [23],0
same,Cocklebur plant response rating,[6]; [24],10
same,"Oat, Wild plant response rating",[7]; [27],0
same,"Oat, Wild plant response rating","[7]; Postemergence, 500 g ai/ha",20
same,Barnyardgrass plant response rating,[8],30
same,"Plant response rating (0 to 100 scale), Pigweed",[9]; 125 g ai/ha,0
same,Pigweed plant response rating,[9]; [27],20
same,Pigweed plant response rating,"[9]; Postemergence, 500 g ai/ha",30
same,"Sedge, Umbrella plant response rating",[10],80
same,"Plant response rating (0 to 100 scale), Surinam Grass",[11]; 125 g ai/ha,10
same,Surinam Grass plant response rating,[11]; [27],10
same,Surinam Grass plant response rating,"[11]; Postemergence, 500 g ai/ha",20
same,"Plant response rating (0 to 100 scale), Corn",[12]; [22],0
same,Corn plant response rating,[12]; [23],0
same,Corn plant response rating,[12]; [24],0
same,Rice plant response rating,[13],60
same,Barnyardgrass plant response rating,[14]; [28],0
same,Barnyardgrass plant response rating,[14]; [25],0
same,Barnyardgrass plant response rating,[14]; [26],15
same,"Plant response rating, Barnyardgrass",[14]; [29],40
same,"Plant response rating (0 to 100 scale), Lambsquarters","[15]; 125 g ai/ha, 0 is no effect, 100 is complete control, preemergence",40
same,Lambsquarters plant response rating,[15]; [27],20
same,Lambsquarters plant response rating,"[15]; Postemergence, 500 g ai/ha",30
same,Ducksalad plant response rating,[16],70
same,Rice plant response rating,"[17]; 62 g ai/ha, scale 0 to 100",0
same,Rice plant response rating,[17]; [25],5
same,Rice plant response rating,[17]; [26],35
same,"Plant response rating, Rice",[17]; [29],50
same,"Plant response rating (0 to 100 scale), Morningglory",[18]; 125 g ai/ha,0
same,Morningglory plant response rating,[18]; [27],10
same,Morningglory plant response rating,"[18]; Postemergence, 500 g ai/ha",10
same,"Sedge, Umbrella plant response rating","[19]; 62 g ai/ha, scale 0 to 100",0
same,"Sedge, Umbrella plant response rating",[19]; [25],45
same,"Sedge, Umbrella plant response rating",[19]; [26],65
same,"Plant response rating, Sedge, Umbrella",[19]; [33],90
same,Blackgrass plant response rating,[20]; [23],0
same,Blackgrass plant response rating,[20]; [24],20
same,Wheat plant response rating,[21]; [30],0
same,Wheat plant response rating,[21]; [31],10
same,Wheat plant response rating,[21]; [32],0

# Source: patent publication US20060069132A1, “Azolecarboxamide herbicides” (priority 2004, published 2006)
